According to article PMC11429203, “Developing New Peptides and Peptide–Drug Conjugates for Targeting the FGFR2 Receptor-Expressing Tumor Cells and 3D Spheroids” (Biomimetics, 2024):
Where a SMILES comes first, the peptide text is derived from it. Where no end group is shown, it is not given here. The star is where a group is joined. Doxorubicin(3'-N) = COc1cccc2c1C(=O)c1c(O)c3c(c(O)c1C2=O)C[C@@](O)(C(=O)CO)C[C@@H]3O[C@H]1C[C@H](N*)[C@H](O)[C@H](C)O1

Assays:
Assay type in all cases: cell-based, human
[1] = test system: co-cultured spheroids of KATO (III) cells and colon tumor-associated fibroblasts (CAFs); assay: Permeation into 3D co-cultured spheroids (fluorescence imaging); settings: for Permeation of DOX conjugates and neat DOX into spheroids / Permeation of carboxyfluorescein-tagged peptides into spheroids: 1 µM, spheroids grown 6 days at 2000 cells/well, fluorescence imaging; for Permeation of DOX conjugates and neat DOX into spheroids: inherent DOX fluorescence; for Penetration depth from Image J plot profiles of fluorescence intensity, periphery to center: semi-quantitative mean normalized intensity, mean from 3 spheroids; for Permeation of carboxyfluorescein-tagged peptides into spheroids: 24 h incubation
Procedure: To mimic the tumor microenvironment, 3D cultures of tumor cells (spheroids) were grown. For growing spheroids, co-cultures of human colon-associated tumor fibroblasts and KATO III gastric cancer cells were grown in a 1:3 ratio in a growth media containing IMDM and fibroblast growth medium. Spheroids grown at 2000 cells/well and 4000 cells/well were co-cultured in Nunclon Sphera nonadherent 12-well plates and allowed to grow over a period of two weeks. The growth of the spheroids was monitored using optical microscopy. Media was cautiously removed every two days, and replaced with new medium.
The co-cultured spheroids were grown at a density of 2000 cells/well for six days prior to treatment with the peptides or the peptide–drug conjugates. To visualize the internalization of the peptides, those were first tagged with fluorescein to allow for visualization through fluorescence microscopy. For tagging, each peptide was tagged with NHS-Fluorescein (5/6-carboxyfluorescein succinimidyl ester to allow for binding with the amine group of the peptides). To each peptide solution (10 µM), 1 µM of the dye solution was added and allowed to shake in the dark for 24 h. The solutions were then centrifuged and washed with deionized water twice to remove any unbound dye. Then, peptide solutions were vortexed and allowed to incubate with the spheroids. For the drug conjugates, no tagging was done, due to inherent fluorescence of DOX. In general, 1 µM solutions of the peptides or drug conjugates were used. The spheroids were then visualized using fluorescent microscopy using an inverted Amscope IN480TC-20MB13 microscope at various magnifications.
To visualize the internalization of the peptides and the peptide–drug conjugates in the spheroids, we conducted fluorescence microscopy using an Amscope Inverted Phase-Contrast Fluorescence Microscope. Samples were imaged at various magnifications.
It is well known that constrained interstitial penetration may impede the diffusion of drugs into tumors, thus affecting efficacy. […] Their entry within the spheroids was examined through fluorescence imaging. In the case of the conjugates, because DOX is inherently fluorescent, fluorescence images were taken without tagging. […] The plot profiles obtained from the edge of the spheroid to the center were measured. On average, five measurements were carried out for images of each of the spheroids that were incubated with DOX-conjugated peptides, as well as with neat DOX. The fluoresence intensity from the periphery to the center of the spheroid was measured.

[2] = test system: KATO (III) tumor cells; assay: Phase contrast imaging of cell morphology after treatment; settings: 1 µM, 24 h, phase contrast microscopy
Procedure: Cells were plated in 96-well plates at a density of 1 × 10^4 cells/well. WST-8 assays (Cayman Chemicals, Ann Arbor, MI, USA) were conducted in triplicate for non-cancer primary fibroblasts, as well as for KATO III cells, following manufacturer instructions from the assay kit. In general, varying concentrations of the peptides and the DOX conjugates were utilized. The concentrations used were 0.1 µM, 0.5 µM, 1 µM, 2 µM and 5 µM. Neat DOX (1 µM, 2 µM) was also compared. The peptides or drug conjugates or DOX were allowed to incubate with cells for 24 h, and imaged using a phase contrast optical microscope before analysis. Following incubation with WST-8 reagent according to manufacturer instructions, absorbance at 450 nm was measured using a Biotek microplate reader. The absorbance of DOX in media was subtracted.
To investigate the impact of the peptides and the peptide–DOX conjugates on KATO (III) tumor cells, we conducted cytotoxicity studies.

[3] = test system: KATO III gastric cancer cells; assay: WST-8 cytotoxicity assay, tumor cells; settings: 24 h, WST-8, highest concentration (5 µM), triplicate
Procedure: Three cell lines were cultured in 50 mL sterile falcon tissue culture flasks. These included the FGFR2-expressing KATO III gastric cancer cell line (ATCC HTB-103), human colon cancer-associated tumor fibroblasts (HC-6231, Cell Biologics), and primary lung fibroblasts (normal) as control (ATCC-PCS-201-013). Both lines of fibroblasts were grown in Fibroblast Growth Media, and KATO III cells were cultured in Iscove’s Modified Dulbecco’s Medium (IMDM). All growth media were supplement with 10% fetal bovine serum (ATCC), 3 mL of 1X antibiotic-antimycotic mixture per 500 mL medium (GIBCO), 10 units/mL penicillin and 10 μg/mL streptomycin (GIBCO). Each cell line was incubated at 37 °C in a 5% CO2 incubator. Cells were grown to confluence, and the medium was changed every 2 to 3 days. Confluent cells were split twice a week.
Cells were plated in 96-well plates at a density of 1 × 10^4 cells/well. WST-8 assays (Cayman Chemicals, Ann Arbor, MI, USA) were conducted in triplicate for non-cancer primary fibroblasts, as well as for KATO III cells, following manufacturer instructions from the assay kit. […] Following incubation with WST-8 reagent according to manufacturer instructions, absorbance at 450 nm was measured using a Biotek microplate reader. The absorbance of DOX in media was subtracted.
To quantify the effects of the cytotoxicity of the peptides and the DOX conjugates, we conducted WST-8 assays. […]

Row | Compound | Permeation of DOX conjugates and neat DOX into spheroids [1] | Penetration depth from Image J plot profiles of fluorescence intensity, periphery to center [1] | Cell morphology after treatment [2] | Permeation of carboxyfluorescein-tagged peptides into spheroids [1] | Cell viability [3] [%]
1 | ACSAGLPHVLTPEAGATGASCA-(DOX)2 [Trimer-pep-(DOX)2] | relatively higher penetration | penetrate deeper | – | – | –
2 | ACSAG [A-pep] | – | – | loss of morphology and adhesive properties | higher internalization | –
3 | COc1cccc2c1C(=O)c1c(O)c3c(c(O)c1C2=O)C[C@@](O)(C(=O)CO)C[C@@H]3O[C@H]1C[C@H](NC(=O)CNC(=O)[C@H](C)NC(=O)[C@H](CO)NC(=O)[C@H](CS)NC(=O)[C@H](C)N)[C@H](O)[C@H](C)O1 [A-pep-DOX] (H-ACSAG-{Doxorubicin(3'-N)}; N-terminus assumed) | higher fluorescence | penetrate deeper | appeared to bleb and burst | – | 9
4 | COc1cccc2c1C(=O)c1c(O)c3c(c(O)c1C2=O)C[C@@](O)(C(=O)CO)C[C@@H]3O[C@H]1C[C@H](NC(=O)CC[C@H](NC(=O)[C@@H]2CCCN2C(=O)[C@@H](NC(=O)[C@H](CC(C)C)NC(=O)[C@@H](NC(=O)[C@H](Cc2c[nH]cn2)NC(=O)[C@@H]2CCCN2C(=O)[C@@H](N)CC(C)C)C(C)C)[C@@H](C)O)C(=O)N[C@@H](C)C(=O)NCC(=O)N[C@@H](C)C(=O)N[C@H](C(=O)N[C@H]2C[C@H](O[C@H]3C[C@](O)(C(=O)CO)Cc4c(O)c5c(c(O)c43)C(=O)c3c(OC)cccc3C5=O)O[C@@H](C)[C@H]2O)[C@@H](C)O)[C@H](O)[C@H](C)O1 [L-pep-(DOX)2] | comparatively lower intensity of fluorescence | – | – | – | 7
5 | CC(C)C[C@H](NC(=O)[C@@H](NC(=O)[C@H](Cc1c[nH]cn1)NC(=O)[C@@H]1CCCN1C(=O)[C@@H](N)CC(C)C)C(C)C)C(=O)N[C@H](C(=O)N1CCC[C@H]1C(=O)N[C@@H](CCC(=O)O)C(=O)N[C@@H](C)C(=O)NCC(=O)N[C@@H](C)C(=O)N[C@H](C(=O)O)[C@@H](C)O)[C@@H](C)O [L-pep] | – | – | appeared spherical | relatively higher fluorescence was observed in the outlayers compared to the core | –
6 | COc1cccc2c1C(=O)c1c(O)c3c(c(O)c1C2=O)C[C@@](O)(C(=O)CO)C[C@@H]3O[C@H]1C[C@H](N)[C@H](O)[C@H](C)O1 [DOX, Doxorubicin, reference compound] | marginal internalization | – | – | – | –
